From ChEMBL document CHEMBL1201862, “PubChem BioAssay data set” (2004)
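Each compound was tested at five concentrations against cells in 96-well plates for 48 hours. The concentration for 50% growth inhibition is given as GI50.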 Activity calls are given as the source filed them. No stated cut-off is given here; in the data, active = GI50 up to about 1.1 µM and inactive = higher.

Assays:
Experiment in all cases: inhibition of tumour cell growth, NCI panel, 48 h
786-0 = tested on: 786-0
A498 = tested on: A498
DLD-1 = tested on: DLD-1
DMS-114 = tested on: DMS-114
DMS-273 = tested on: DMS-273
M14 = tested on: M14
SK-MEL-2 = tested on: SK-MEL-2
SNB-78 = tested on: SNB-78
TK-10 = tested on: TK-10
U-251 = tested on: U-251
UACC-257 = tested on: UACC-257
Hs-578T = tested on: Hs-578T
MDA-MB-231 = tested on: MDA-MB-231
MDA-MB-435 = tested on: MDA-MB-435
MDA-N = tested on: MDA-N
NCI-H226 = tested on: NCI-H226
NCI/ADR-RES = tested on: NCI/ADR-RES
PC-3 = tested on: PC-3
SR = tested on: SR
T47D = tested on: T47D

Measured: GI50

O=c1[nH]c(=O)n(C2CC(O)C(CO)O2)cc1C(OCC(F)(F)F)OCC(F)(F)F (centres undefined)
inactive: 786-0 > 100 µM | A498 > 100 µM | DLD-1 > 100 µM | DMS-114 > 100 µM | DMS-273 > 100 µM | M14 > 100 µM | SK-MEL-2 > 100 µM | SNB-78 > 100 µM | TK-10 > 100 µM | U-251 > 100 µM | UACC-257 > 100 µM

Nc1n[c-](N)[n+](=O)c(N)c1NCO
inactive: 786-0 > 100 µM | A498 > 100 µM | Hs-578T > 100 µM | M14 > 100 µM | MDA-MB-231 > 100 µM | MDA-MB-435 > 100 µM | MDA-N > 100 µM | NCI-H226 > 100 µM | NCI/ADR-RES > 100 µM | PC-3 > 100 µM | SK-MEL-2 > 100 µM | SR > 100 µM | T47D > 100 µM | TK-10 > 100 µM | U-251 > 100 µM | UACC-257 > 100 µM

N#C/N=N/c1cc(Cl)c(/N=N/C#N)cc1Cl
inactive: A498 > 100 µM | DLD-1 > 100 µM | DMS-114 > 100 µM | DMS-273 > 100 µM | M14 > 100 µM | NCI-H226 > 100 µM | SK-MEL-2 > 100 µM | SNB-78 > 100 µM | SR 34.8 µM | TK-10 > 100 µM | U-251 > 100 µM | UACC-257 > 100 µM

COc1cc(C2C(C(=O)O)=C(CO)Oc3cc4c(cc32)OCO4)cc(OC)c1O (centres undefined)
inactive: DLD-1 > 100 µM | DMS-114 > 100 µM | DMS-273 > 100 µM | M14 > 100 µM | SNB-78 > 100 µM | TK-10 > 100 µM | U-251 > 100 µM | UACC-257 > 100 µM

C[N+](C)([O-])CCOc1cc2c(c3ccccc13)-c1ccccc1C2=O
inactive: A498 20.3 µM | DLD-1 17 µM | DMS-114 7.83 µM | DMS-273 16.3 µM | NCI-H226 15.7 µM | NCI/ADR-RES 14.3 µM | SK-MEL-2 18.4 µM | SNB-78 19.8 µM | U-251 13.3 µM | UACC-257 6.65 µM

C[Si](C)(C)/C=C/CN1C(=O)CCC1=O
inactive: A498 > 100 µM | DLD-1 > 100 µM | DMS-114 > 100 µM | DMS-273 > 100 µM | M14 > 100 µM | SK-MEL-2 > 100 µM | SNB-78 > 100 µM | SR > 100 µM | TK-10 > 100 µM | U-251 > 100 µM

COc1nc(SC)nc2c1cnn2C1OC(C(O)CO)C(OC)C1O (centres undefined)
inactive: A498 > 100 µM | DLD-1 > 100 µM | DMS-114 > 80 µM | DMS-273 > 100 µM | NCI-H226 > 100 µM | NCI/ADR-RES > 100 µM | SK-MEL-2 > 100 µM | SNB-78 > 85.9 µM | U-251 > 100 µM | UACC-257 > 75.7 µM

COc1ccc2nc3cc(Cl)ccc3c(Sc3ccc(N)cc3)c2c1
inactive: 786-0 6.95 µM | A498 29.1 µM | DLD-1 4.47 µM | DMS-114 4.99 µM | DMS-273 10.6 µM | M14 9.06 µM | NCI-H226 18.5 µM | SK-MEL-2 13.8 µM | SNB-78 12.5 µM | SR 2.62 µM | TK-10 13.2 µM | U-251 10.5 µM | UACC-257 13.2 µM

O=[N+]([O-])c1ccc2[nH]c3c(-c4ccccc4)nccc3c2c1
inactive: A498 82.6 µM | DLD-1 3.73 µM | DMS-114 18.9 µM | DMS-273 11.9 µM | NCI-H226 9.75 µM | NCI/ADR-RES 16 µM | SK-MEL-2 35 µM | SNB-78 31 µM | U-251 19.5 µM | UACC-257 30 µM

CN(C)C(=S)/N=c1\ssc(=S)n1C
inactive: 786-0 > 100 µM | A498 > 100 µM | DLD-1 > 100 µM | DMS-114 > 100 µM | DMS-273 > 100 µM | M14 > 100 µM | NCI-H226 > 100 µM | SK-MEL-2 > 100 µM | SNB-78 > 100 µM | SR > 100 µM | TK-10 > 100 µM | U-251 > 100 µM | UACC-257 > 100 µM

CN(C)CCNC(=O)c1cccc2ccc(-c3ccc(F)cc3)nc12
inactive: A498 7.1 µM | DLD-1 3.64 µM | DMS-114 5.48 µM | DMS-273 2.82 µM | NCI-H226 3.53 µM | NCI/ADR-RES 3.18 µM | SK-MEL-2 9.18 µM | SNB-78 8.85 µM | U-251 6.19 µM | UACC-257 5.51 µM

CC1(C)OP23(NC(=O)OC2(C(F)(F)F)c2ccccc2O3)OC1(C)C (centres undefined)
inactive: DLD-1 > 100 µM | DMS-114 > 100 µM | DMS-273 > 100 µM | M14 > 100 µM | NCI-H226 > 100 µM | SK-MEL-2 > 100 µM | SNB-78 > 100 µM | TK-10 > 100 µM | U-251 > 100 µM | UACC-257 > 100 µM

N#Cc1c(=O)c2cccnc2n2c1[nH]c1ccccc12
inactive: 786-0 32.1 µM | A498 77.3 µM | Hs-578T 21.6 µM | M14 90.2 µM | MDA-MB-231 27 µM | MDA-MB-435 > 100 µM | MDA-N > 100 µM | NCI-H226 66.5 µM | NCI/ADR-RES 64.6 µM | PC-3 > 100 µM | SK-MEL-2 > 100 µM | SR > 100 µM | T47D > 100 µM | TK-10 55.5 µM | U-251 38.6 µM | UACC-257 > 100 µM

O=C(NN1C(=O)CS(=O)(=O)C1c1ccc(Cl)c(Cl)c1)c1ccncc1 (centres undefined)
inactive: A498 > 90.4 µM | DLD-1 > 100 µM | DMS-114 61.2 µM | DMS-273 > 31.6 µM | NCI-H226 > 100 µM | NCI/ADR-RES > 92.7 µM | SK-MEL-2 > 100 µM | SNB-78 > 93.1 µM | U-251 > 100 µM | UACC-257 > 100 µM
